# In patent US20080286809A1, “Methods” (MEDICAL RESEARCH COUNCIL, priority 2005, published 2008):
# Biological target: T1, WNK1 (Homo sapiens, UniProt Q9H4A3)
# T1 construct: made in house
# Assay: ELISA assay for inhibitors of WNK activity: anti-phospho-SPAK-S373 detection of OSR1(D164A) phosphorylation
# Format: biochemical
# Conditions: non-radioactive ELISA; immobilised OSR1(D164A) substrate; anti-phospho-SPAK-S373 antibody; absorbance readout; read-out: IC50, Hypericin Inhibition of WNK1
# Procedure: An example of a non-radioactive assay, suitable for screening of small drug-like compound libraries, has been developed using anti-phospho-SPAK antibodies to detect phosphorylation of WNK substrates SPAK or OSR1 in an ELISA format.
# Anti-phospho-SPAK-S373 and anti-phospho-SPAK-T233 were anti-phospho-peptide antibodies raised in sheep for use in western blotting. They were evaluated for use in the ELISA format. Anti-phospho-SPAK-S373 was active in the ELISA with native OSR1 protein. SPAK and OSR1 are interchangeable in the assay as the amino acid sequences are very similar overall and have the same sequence flanking the phosphorylation sites. […] Wild type OSR1 had significant autophosphorylation/ATP hydrolytic activity, and could lead to depletion of substrates during the time course of the reaction.
# The assay was performed in maxisorp (Nunc) 384-clear plates. OSR1(D164A), 30 ng/well, was coated overnight at 4° C. in Tris buffered saline (TBS) pH 7.4. […] Plates were read on an absorbance reader at […]. […]
# The assay was tolerant to a wide range of ATP concentrations (1-1000 μM) and 1% DMSO (compound storage solvent). Compound interference by autofluorescence, quenching or absorbance is minimised as it is heterogeneous involving several wash steps. […]
# T1 sequence (Q9H4A3 whole entry): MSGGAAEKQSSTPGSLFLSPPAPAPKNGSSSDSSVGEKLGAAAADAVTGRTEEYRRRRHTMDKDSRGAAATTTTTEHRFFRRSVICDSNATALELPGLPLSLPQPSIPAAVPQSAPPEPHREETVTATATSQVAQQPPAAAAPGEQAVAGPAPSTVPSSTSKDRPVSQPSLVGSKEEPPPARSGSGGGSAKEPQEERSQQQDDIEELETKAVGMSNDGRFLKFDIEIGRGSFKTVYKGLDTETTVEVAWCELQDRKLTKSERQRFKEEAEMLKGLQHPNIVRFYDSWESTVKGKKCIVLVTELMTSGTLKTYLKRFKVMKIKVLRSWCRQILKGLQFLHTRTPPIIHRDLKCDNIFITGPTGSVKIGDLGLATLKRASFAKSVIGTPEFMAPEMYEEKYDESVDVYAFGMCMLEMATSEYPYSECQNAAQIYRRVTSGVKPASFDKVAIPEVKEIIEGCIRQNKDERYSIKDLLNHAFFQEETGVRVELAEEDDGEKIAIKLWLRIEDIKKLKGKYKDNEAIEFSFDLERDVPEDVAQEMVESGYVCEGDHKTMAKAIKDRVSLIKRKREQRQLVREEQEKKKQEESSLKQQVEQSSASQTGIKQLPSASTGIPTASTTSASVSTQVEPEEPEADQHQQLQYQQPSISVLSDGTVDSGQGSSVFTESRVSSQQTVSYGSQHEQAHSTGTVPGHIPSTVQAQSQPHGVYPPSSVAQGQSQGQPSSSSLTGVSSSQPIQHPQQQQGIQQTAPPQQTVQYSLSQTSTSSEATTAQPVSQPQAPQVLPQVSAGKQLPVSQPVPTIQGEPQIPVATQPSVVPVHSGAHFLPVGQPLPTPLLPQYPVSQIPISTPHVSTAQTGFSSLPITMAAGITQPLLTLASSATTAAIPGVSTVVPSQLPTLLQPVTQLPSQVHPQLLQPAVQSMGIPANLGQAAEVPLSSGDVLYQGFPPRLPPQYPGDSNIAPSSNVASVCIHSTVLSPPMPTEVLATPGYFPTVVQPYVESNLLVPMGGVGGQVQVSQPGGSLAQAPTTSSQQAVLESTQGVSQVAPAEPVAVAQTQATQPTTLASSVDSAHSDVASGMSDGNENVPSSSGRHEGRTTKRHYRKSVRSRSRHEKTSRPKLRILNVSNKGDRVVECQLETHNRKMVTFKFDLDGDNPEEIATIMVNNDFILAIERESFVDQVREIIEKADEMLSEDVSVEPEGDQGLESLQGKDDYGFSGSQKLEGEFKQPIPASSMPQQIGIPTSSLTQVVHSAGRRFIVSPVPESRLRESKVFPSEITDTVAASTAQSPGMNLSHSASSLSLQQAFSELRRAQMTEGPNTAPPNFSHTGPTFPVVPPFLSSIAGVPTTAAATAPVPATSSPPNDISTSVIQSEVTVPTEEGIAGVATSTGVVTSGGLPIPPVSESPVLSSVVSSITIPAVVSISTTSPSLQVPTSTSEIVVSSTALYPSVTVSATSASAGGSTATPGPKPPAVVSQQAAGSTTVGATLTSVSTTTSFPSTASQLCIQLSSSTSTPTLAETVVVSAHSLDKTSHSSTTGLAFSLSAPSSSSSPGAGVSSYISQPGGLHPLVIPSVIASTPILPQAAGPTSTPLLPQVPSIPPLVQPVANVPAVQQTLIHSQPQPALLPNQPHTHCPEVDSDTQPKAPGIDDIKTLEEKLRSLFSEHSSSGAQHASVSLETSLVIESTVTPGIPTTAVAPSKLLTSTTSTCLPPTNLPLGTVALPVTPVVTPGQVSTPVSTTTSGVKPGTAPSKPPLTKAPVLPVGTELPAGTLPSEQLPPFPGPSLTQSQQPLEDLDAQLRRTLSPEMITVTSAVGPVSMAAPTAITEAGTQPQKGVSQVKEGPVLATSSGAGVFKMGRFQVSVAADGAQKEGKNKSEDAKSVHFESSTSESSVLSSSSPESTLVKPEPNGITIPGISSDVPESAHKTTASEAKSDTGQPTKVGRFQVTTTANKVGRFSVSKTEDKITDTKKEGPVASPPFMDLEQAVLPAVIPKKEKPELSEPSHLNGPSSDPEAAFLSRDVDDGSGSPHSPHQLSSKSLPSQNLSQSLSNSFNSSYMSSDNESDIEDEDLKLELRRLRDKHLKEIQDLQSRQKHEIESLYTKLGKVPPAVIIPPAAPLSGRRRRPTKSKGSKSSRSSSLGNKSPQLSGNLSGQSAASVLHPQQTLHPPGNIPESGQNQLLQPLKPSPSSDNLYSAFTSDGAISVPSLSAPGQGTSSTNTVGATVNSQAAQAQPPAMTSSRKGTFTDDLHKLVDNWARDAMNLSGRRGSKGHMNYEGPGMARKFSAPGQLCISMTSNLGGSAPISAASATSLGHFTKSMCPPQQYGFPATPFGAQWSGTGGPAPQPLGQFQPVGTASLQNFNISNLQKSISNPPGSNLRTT
compound,measurement,value
Cc1cc(O)c2c(=O)c3c(O)cc(O)c4c5c(O)cc(O)c6c(=O)c7c(O)cc(C)c8c1c2c(c34)c(c78)c65 [Hypericin],IC50,1500 nM
